Consider 16 compounds from patent US8173689B2 (Novartis AG, priority 2006, dated 2012).

Like-named read-outs stand apart in the source and are kept apart here.

What is called inhibition is how much of the control response was suppressed.

Experiment [1] has as its target T1, cytoplasmic domain of the human CSF-1R (Homo sapiens, UniProt P07333).
T1 construct: Recombinant protein corresponding to the cytoplasmic domain of the human CSF-1R; purchased Invitrogen Corporation, Carlsbad, Calif; PV3249
T1 sequence (P07333 539-972 limits assumed): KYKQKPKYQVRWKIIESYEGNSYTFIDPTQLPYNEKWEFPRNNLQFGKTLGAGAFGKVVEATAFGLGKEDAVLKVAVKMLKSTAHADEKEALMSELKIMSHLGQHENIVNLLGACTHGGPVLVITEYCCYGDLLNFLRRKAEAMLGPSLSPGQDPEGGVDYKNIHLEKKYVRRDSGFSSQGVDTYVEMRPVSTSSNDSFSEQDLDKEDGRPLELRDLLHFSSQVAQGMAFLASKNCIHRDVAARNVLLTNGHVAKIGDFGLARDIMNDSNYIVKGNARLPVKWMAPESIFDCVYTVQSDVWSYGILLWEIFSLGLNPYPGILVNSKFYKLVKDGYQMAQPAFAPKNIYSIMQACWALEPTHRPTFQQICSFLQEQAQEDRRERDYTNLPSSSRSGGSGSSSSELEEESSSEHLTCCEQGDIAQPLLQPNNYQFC
Kind of experiment: In vitro kinase assay for colony stimulating factor-1 receptor (AlphaScreen). It is filed as biochemical. The settings on record: tested at about 1 μM, read-out: CSF-1R percent inhibition. A digest of the protocol: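 At a low ATP level of 1 μM, phosphate transfer by the cytoplasmic-domain kinase (4 nM) was quantified with an AlphaScreen anti-phosphotyrosine bead pair.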

Experiment [2] deals with T2, full-length human CSF-1R receptor (Homo sapiens, UniProt P07333).
T2 construct: transfected with the full-length human CSF-1R receptor cloned in house; expressed in transfected cells; host or cells: HEK293H (Invitrogen Cat. #11631017)
The experiment can be described thus: In vitro inhibition of CSF-1R receptor tyrosine phosphorylation in transfected HEK293H cells stimulated with MCSF. It is filed as cell-based. As to conditions: HEK293-H, tested at about 1 μM, read-out: pCSF1R percent inhibition. The protocol:
The lysate was then transferred to total CSF-1R antibody coated 96-well plates that had already been blocked with 3% Blocker A from Mesoscale discovery (MSD) for 2 hours and washed afterwards. Lysates were incubated overnight at 4° C. and the plates were then washed 4× with MSD Tris Wash Buffer. […] The plates were read on the Sector 6000 instrument (MSD). Raw data was imported in Abase and EC50s calculated with XL-fit data analysis software.

The next experiment deals with T3, kinase domain of cKIT (Homo sapiens, UniProt P10721).
T3 construct: The kinase domain of cKIT was assayed in 50 mM Hepes; purchased Upstate 14-559
Kind of experiment: Inhibition of cKIT kinase signaling in an in vitro biochemical assay (alphascreen). The settings on record: tested at about 1 μM, read-out: cKit percent inhibition.

Another experiment concerns the target T4, kinase domain of PDGFRβ (Homo sapiens, UniProt P09619).
T4 construct: The kinase domain of PDGFRβ was assayed in 50 mM Hepes; purchased Invitrogen P3082
The experiment can be described thus: Inhibition of PDGFRb kinase signaling in an in vitro biochemical assay (alphascreen). The settings on record: tested at about 1 μM, read-out: PDGFRβ percent inhibition. (Alpha assays give light when donor and acceptor beads are brought close together.)

Experiment [3] deals with MNFS60 (murine AML cells). The experiment can be described thus: Cell viability assay in MCSF dependent MNFS60 cells (Cell Titer Glo). It is filed as cell-based. As to conditions: Mus musculus, tested at about 1 μM, read-out: M-NFS-60 CP percent inhibition. Summed up:
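Viability was read by Cell Titer Glo after 72 hrs at 37° C., 5% CO2, with triplicate conditions. Compounds were titrated 3-fold into MNFS60 cultures whose final MCSF level was 10 ng/ml. EC50 values came from curve fitting.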
A general note: In ATP-based viability assays light output follows the ATP content of the culture.

T2 sequence (P07333 20-972): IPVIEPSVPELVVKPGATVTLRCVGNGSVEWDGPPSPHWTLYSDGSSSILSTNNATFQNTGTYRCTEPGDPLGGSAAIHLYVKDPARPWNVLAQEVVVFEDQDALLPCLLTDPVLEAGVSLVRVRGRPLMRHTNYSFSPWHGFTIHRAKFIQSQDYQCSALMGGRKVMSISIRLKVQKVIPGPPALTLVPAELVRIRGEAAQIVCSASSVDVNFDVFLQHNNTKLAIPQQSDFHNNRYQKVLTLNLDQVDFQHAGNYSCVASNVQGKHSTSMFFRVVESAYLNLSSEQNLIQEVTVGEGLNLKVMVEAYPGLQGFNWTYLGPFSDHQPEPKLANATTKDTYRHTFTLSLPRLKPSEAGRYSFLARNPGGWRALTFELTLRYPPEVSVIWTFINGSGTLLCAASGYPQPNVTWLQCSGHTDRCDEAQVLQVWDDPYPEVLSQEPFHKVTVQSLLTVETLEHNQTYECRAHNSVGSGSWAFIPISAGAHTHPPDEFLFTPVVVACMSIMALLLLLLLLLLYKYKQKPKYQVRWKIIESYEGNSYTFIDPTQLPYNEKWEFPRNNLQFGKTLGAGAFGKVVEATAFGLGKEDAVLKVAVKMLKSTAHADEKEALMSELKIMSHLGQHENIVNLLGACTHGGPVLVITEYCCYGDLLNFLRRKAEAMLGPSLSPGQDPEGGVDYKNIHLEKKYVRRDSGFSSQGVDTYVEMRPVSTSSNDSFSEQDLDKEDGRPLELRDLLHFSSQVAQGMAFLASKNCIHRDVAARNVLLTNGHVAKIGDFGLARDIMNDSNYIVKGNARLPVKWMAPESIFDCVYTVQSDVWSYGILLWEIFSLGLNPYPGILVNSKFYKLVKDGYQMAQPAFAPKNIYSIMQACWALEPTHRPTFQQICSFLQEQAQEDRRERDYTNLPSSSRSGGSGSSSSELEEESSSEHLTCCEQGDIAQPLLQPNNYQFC
T3 sequence (P10721 589-937 limits assumed): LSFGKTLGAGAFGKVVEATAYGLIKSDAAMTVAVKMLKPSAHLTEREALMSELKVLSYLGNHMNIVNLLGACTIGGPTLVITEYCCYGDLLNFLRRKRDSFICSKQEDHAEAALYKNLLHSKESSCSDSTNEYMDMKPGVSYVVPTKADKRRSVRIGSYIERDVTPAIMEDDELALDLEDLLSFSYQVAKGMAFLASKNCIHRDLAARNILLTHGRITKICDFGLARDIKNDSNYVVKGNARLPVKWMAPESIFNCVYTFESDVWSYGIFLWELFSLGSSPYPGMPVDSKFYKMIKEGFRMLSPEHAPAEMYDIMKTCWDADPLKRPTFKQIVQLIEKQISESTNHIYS
T4 sequence (P09619 600-962 limits assumed): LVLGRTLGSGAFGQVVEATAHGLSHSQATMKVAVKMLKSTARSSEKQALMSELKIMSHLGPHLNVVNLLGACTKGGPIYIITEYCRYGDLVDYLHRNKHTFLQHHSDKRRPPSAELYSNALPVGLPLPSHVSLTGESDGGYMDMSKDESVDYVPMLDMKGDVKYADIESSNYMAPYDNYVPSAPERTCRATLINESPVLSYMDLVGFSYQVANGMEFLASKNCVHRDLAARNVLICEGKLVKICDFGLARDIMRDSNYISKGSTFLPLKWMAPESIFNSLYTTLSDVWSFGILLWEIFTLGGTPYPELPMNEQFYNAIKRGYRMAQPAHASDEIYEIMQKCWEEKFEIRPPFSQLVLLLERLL

As to `CNC(=O)c1cc(Oc2ccc3nc(NCc4cccc5c4OCCO5)sc3c2)ccn1` [Compound 152, 4-{2-[(2,3-Dihydro-benzo-[1,4]dioxin-5-ylmethyl)-amino]-benzothiazol-6-yloxy}-pyridine-2-carboxylic acid methylamide], the inhibition at 1 µM stood at 99% in experiment [1]; 98% in experiment [2] (HEK293H cells); 100% at kinase domain of cKIT; 82% at kinase domain of PDGFRβ; 100% in experiment [3] (MNFS60 cells).

With `CNC(=O)c1cc(Oc2ccc3nc(NCc4ccccc4F)sc3c2)ccn1` [Compound 140, 4-[2-(2-Fluoro-benzylamino)-benzothiazol-6-yloxy]-pyridine-2-carboxylic acid methylamide], the inhibition at 1 µM in experiment [1] turned out to be 100%; in experiment [2] (HEK293H cells) it was 90%; at kinase domain of cKIT, 92%; on kinase domain of PDGFRβ, 0%; in experiment [3] (MNFS60 cells), 52%.

With `CNC(=O)c1cc(Oc2ccc3nc(N[C@H](C)c4ccccc4OC)sc3c2)ccn1` [Compound 129, 4-{2-[(R)-1-(2-Methoxy-phenyl)-ethylamino]-benzothiazol-6-yloxy}-pyridine-2-carboxylic acid methylamide], the inhibition at 1 µM was 99% in experiment [1]; 92% in experiment [2] (HEK293H cells); 92% on kinase domain of cKIT; 34% at kinase domain of PDGFRβ; 94% in experiment [3] (MNFS60 cells).

As to `CC(C)CONC(=O)c1cc(Oc2ccc3nc(NCC4CCCCC4)sc3c2)ccn1` [Example 380, 4-(2-(cyclohexylmethylamino)benzo[d]thiazol-6-yloxy)-N-isobutoxypicolinamide], the inhibition at 1 µM in experiment [1] was found to be 100%; in experiment [2] (HEK293H cells), 94%; at kinase domain of cKIT, 53%; on kinase domain of PDGFRβ it was 49%; in experiment [3] (MCSF dependent MNFS60 cells), 79%.

As to `CNC(=O)c1cc(Oc2ccc3nc(NCc4ccccc4N4CCCCC4)oc3c2)ccn1` [Compound 118, 4-[2-(2-Piperidin-1-yl-benzylamino)-benzooxazol-6-yloxy]-pyridine-2-carboxylic acid methylamide], the inhibition at 1 µM in experiment [1] worked out at 100%; in experiment [2] (HEK293H cells) it was 69%; on kinase domain of cKIT, 95%; on kinase domain of PDGFRβ, 49%; in experiment [3] (MNFS60 cells) it was 83%.

On to `C[C@H](Nc1nc2ccc(Oc3ccnc(-c4cnn(C)c4)c3)cc2s1)C1CCCCC1` [Cmpd 163, (S)-N-(1-cyclohexylethyl)-6-(2-(1-methyl-1H-pyrazol-4-yl)pyridin-4-yloxy)benzo[d]thiazol-2-amine], for which the inhibition at 1 µM was found to be 100% in experiment [1] (compounds of Table 3); 99% in experiment [2] (compounds of Table 3); 32% on kinase domain of cKIT (compounds of Table 3); 39% on kinase domain of PDGFRβ (compounds of Table 3); 100% in experiment [3] (compounds of Table 3).

Regarding `CNC(=O)c1cc(Oc2ccc3nc(NCc4cccc(Cl)c4Cl)oc3c2)ccn1` [Compound 77, 4-[2-(2,3-Dichloro-benzylamino)-benzooxazol-6-yloxy]-pyridine-2-carboxylic acid methylamide], the inhibition at 1 µM in experiment [1] came out at 100%; in experiment [2] (HEK293H cells), 94%; at kinase domain of cKIT, 92%; on kinase domain of PDGFRβ, 15%; in experiment [3] (MNFS60 cells) it was 79%.

In the case of `Cc1c[nH]c(-c2cc(Oc3ccc4nc(N[C@@H]5CCCC[C@H]5O)sc4c3)ccn2)n1` [Example 231, (1R,2R)-2-(6-(2-(4-methyl-1H-imidazol-2-yl)pyridin-4-yloxy)benzo[d]thiazol-2-ylamino)cyclohexanol], the inhibition at 1 µM in experiment [1] (compounds of Table 3) came out at 100%; in experiment [2] (compounds of Table 3) it was 99%; on kinase domain of cKIT (compounds of Table 3) it was 9%; at kinase domain of PDGFRβ (compounds of Table 3) it was 49%; in experiment [3] (compounds of Table 3), 100%.

On to `CNC(=O)c1cc(Oc2ccc3nc(N[C@@H]4CCCC[C@H]4CO)sc3c2)ccn1` [Example 299, 4-(2-((1R,2R)-2-(hydroxymethyl)cyclohexyl-amino)benzo[d]thiazol-6-yloxy)-N-methylpicolinamide], for which the inhibition at 1 µM in experiment [1] (compounds of Table 3) was determined as 100%; in experiment [2] (compounds of Table 3), 95%; on kinase domain of cKIT (compounds of Table 3), 32%; on kinase domain of PDGFRβ (compounds of Table 3), 57%; in experiment [3] (compounds of Table 3), 94%.

Take `O[C@@H]1CCCC[C@H]1Nc1nc2ccc(Oc3ccnc(-c4ccnc(N5CCOCC5)c4F)c3)cc2s1` [Cmpd 172, (1R,2R)-2-(6-(3'-fluoro-2'-morpholino-2,4'-bipyridin-4-yloxy)benzo[d]thiazol-2-ylamino)cyclohexanol]: the inhibition at 1 µM in experiment [1] (compounds of Table 3) worked out at 100%; in experiment [2] (compounds of Table 3), 97%; on kinase domain of cKIT (compounds of Table 3) it was 22%; at kinase domain of PDGFRβ (compounds of Table 3), 18%; in experiment [3] (compounds of Table 3), 100%.

Consider `CNC(=O)c1cc(Oc2ccc3nc(NCc4ccccc4-n4cccn4)oc3c2)ccn1` [Compound 105, 4-[2-(2-Pyrazol-1-yl-benzyl-amino)-benzooxazol-6-yloxy]-pyridine-2-carboxylic acid methylamide], for which the inhibition at 1 µM in experiment [1] is 99%; in experiment [2] (HEK293H cells) it was 70%; on kinase domain of cKIT it was 22%; at kinase domain of PDGFRβ it was 8%; in experiment [3] (MNFS60 cells), 49%.

Take `CNC(=O)c1cc(Oc2ccc3nc(N[C@@H](C)c4ccccc4OC)sc3c2)ccn1` [Example 328, (S)-4-(2-(1-(2-methoxyphenyl)ethylamino)benzo[d]thiazol-6-yloxy)-N-methylpicolinamide]: the inhibition at 1 µM came to 100% in experiment [1]; 80% in experiment [2] (HEK293H cells); 14% at kinase domain of cKIT; 0% at kinase domain of PDGFRβ; 63% in experiment [3] (MCSF dependent MNFS60 cells).

On to `O[C@@H]1CCCC[C@H]1Nc1nc2ccc(Oc3ccnc(-c4ccnc(F)c4)c3)cc2s1` [Cmpd 171, (1R,2R)-2-(6-(2'-fluoro-2,4'-bipyridin-4-yloxy)benzo[d]thiazol-2-ylamino)cyclohexanol], for which the inhibition at 1 µM in experiment [1] (compounds of Table 3) turned out to be 100%; in experiment [2] (compounds of Table 3), 95%; on kinase domain of cKIT (compounds of Table 3), 25%; at kinase domain of PDGFRβ (compounds of Table 3), 18%; in experiment [3] (compounds of Table 3) it was 96%.

On to `Cc1nc(-c2cc(Oc3ccc4nc(N[C@@H](C)C5CCCCC5)sc4c3)ccn2)[nH]c1C` [Example 269, (S)-N-(1-cyclohexylethyl)-6-(2-(4,5-dimethyl-1H-imidazol-2-yl)pyridin-4-yloxy)benzo[d]thiazol-2-amine], for which the inhibition at 1 µM was 100% in experiment [1] (compounds of Table 3); 85% in experiment [2] (compounds of Table 3); 18% on kinase domain of cKIT (compounds of Table 3); 13% at kinase domain of PDGFRβ (compounds of Table 3); 75% in experiment [3] (compounds of Table 3).

On to `Cn1cc(-c2cc(Oc3ccc4nc(N[C@@H](CO)C5CCCCC5)sc4c3)ccn2)cn1` [Example 347, (R)-2-cyclohexyl-2-(6-(2-(1-methyl-1H-pyrazol-4-yl)pyridin-4-yloxy)benzo[d]thiazol-2-ylamino)ethanol], for which the inhibition at 1 µM in experiment [1] worked out at 100%; in experiment [2] (HEK293H cells) it was 99%; on kinase domain of cKIT it was 37%; at kinase domain of PDGFRβ, 58%; in experiment [3] (MCSF dependent MNFS60 cells), 100%.

Turning to `CC(C)(C)[C@@H](CO)Nc1nc2ccc(Oc3ccnc4ccccc34)cc2s1` [Example 248, (S)-3,3-dimethyl-2-(6-(quinolin-4-yloxy)benzo[d]thiazol-2-ylamino)butan-1-ol], the inhibition at 1 µM in experiment [1] (compounds of Table 3) is 100%; in experiment [2] (compounds of Table 3) it was 39%; on kinase domain of cKIT (compounds of Table 3) it was 33%; at kinase domain of PDGFRβ (compounds of Table 3), 41%; in experiment [3] (compounds of Table 3), 51%.
